Experimental data published in article PMC12064818, “A general assay platform to study protein pharmacology using ligand-dependent structural dynamics” (Nature Communications, 2025).
Read-outs that look alike come from different tables or passages of the source.

Legend:
NLuc = target: T1, NLuc (Oplophorus gracilirostris, UniProt Q9GV45, A31E/A60N/A81I/F95D/I117V/K70R/L54V/L99Q/M102K/N193R/P142E/Q151K/Q38R/Q45L/V71I/Y165I); format: biochemical; details: - ATP
T1 construct: His tag (inferred from IMAC purification); made in house; host or cells: E. coli
T1 sequence (Q9GV45 other isoform, or with tags, fused parts or gaps with the stated changes): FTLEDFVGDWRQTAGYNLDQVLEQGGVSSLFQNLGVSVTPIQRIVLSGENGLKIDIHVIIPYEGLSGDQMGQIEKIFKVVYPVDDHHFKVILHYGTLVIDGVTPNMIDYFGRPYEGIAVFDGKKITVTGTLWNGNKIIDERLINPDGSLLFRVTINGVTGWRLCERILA
Summary of the method: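 Test compounds added to 1 nM NLuc in PBS with 0.05% IGEPAL, ± ATP. Nano-Glo reagent added and incubated 10 min before luminescence read.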

P. pyralis FLuc = P. pyralis FLuc (Photinus pyralis, UniProt P08659); assay: FLuc enzymatic luminescence assay, P. pyralis FLuc; format: biochemical; details: FLuc enzymatic assay; for IC50: read-out: IC50 or SDR50 (mM) FLuc E
Sequence of P. pyralis FLuc (P08659 whole entry): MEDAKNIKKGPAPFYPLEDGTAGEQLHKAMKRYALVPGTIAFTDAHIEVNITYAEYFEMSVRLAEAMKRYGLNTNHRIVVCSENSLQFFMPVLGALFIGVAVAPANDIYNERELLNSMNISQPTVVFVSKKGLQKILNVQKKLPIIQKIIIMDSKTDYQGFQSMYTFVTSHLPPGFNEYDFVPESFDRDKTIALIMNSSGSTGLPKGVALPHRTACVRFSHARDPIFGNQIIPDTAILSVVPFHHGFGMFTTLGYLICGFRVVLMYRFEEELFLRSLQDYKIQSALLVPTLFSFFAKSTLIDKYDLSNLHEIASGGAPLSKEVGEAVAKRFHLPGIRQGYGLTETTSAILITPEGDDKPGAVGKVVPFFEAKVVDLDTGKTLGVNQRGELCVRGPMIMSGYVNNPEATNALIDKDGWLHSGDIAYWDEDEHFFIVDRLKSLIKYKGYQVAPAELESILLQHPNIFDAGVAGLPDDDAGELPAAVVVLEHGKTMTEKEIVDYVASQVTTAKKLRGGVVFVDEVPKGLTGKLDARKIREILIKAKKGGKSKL
Summary of the method: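 Runs with and without 10 µM ATP: compounds were pre-incubated with FLuc (1–10 nM, PBS pH 7.4) at ambient temperature, light-protected, for 30–60 min. Luminescence was imaged 5 min after adding 10 µM D-luciferin (final). Inhibition was scaled between DMSO neutral and no-enzyme controls.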

[1] = target: FLuc-C-NLuc (firefly luciferase) (Photinus pyralis, UniProt P08659, form not given/L550V); assay: SDR assay, FLuc-C-NLuc; details: - ATP
Sequence of FLuc-C-NLuc (firefly luciferase) (P08659 2-550 L550V, form open): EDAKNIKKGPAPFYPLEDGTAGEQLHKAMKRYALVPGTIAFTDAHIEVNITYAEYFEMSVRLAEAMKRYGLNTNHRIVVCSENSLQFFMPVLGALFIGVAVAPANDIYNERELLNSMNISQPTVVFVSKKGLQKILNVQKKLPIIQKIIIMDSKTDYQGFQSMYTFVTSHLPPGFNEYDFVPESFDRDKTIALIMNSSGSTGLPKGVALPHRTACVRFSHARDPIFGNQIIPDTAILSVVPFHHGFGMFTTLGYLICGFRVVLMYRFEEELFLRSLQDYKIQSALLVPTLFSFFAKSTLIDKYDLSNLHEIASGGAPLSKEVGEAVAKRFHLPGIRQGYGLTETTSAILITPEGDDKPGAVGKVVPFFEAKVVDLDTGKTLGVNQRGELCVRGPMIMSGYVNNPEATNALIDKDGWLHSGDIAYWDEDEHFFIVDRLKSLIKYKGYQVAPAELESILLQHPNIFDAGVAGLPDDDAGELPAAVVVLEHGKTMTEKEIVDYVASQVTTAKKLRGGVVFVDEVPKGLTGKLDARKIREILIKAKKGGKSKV

[2] = target: FLuc-C-HiBiT (firefly luciferase) (Photinus pyralis, UniProt P08659, form not given/L550V); assay: SDR assay, FLuc-C-HiBiT; details: SDR max. response, clade S
Sequence of FLuc-C-HiBiT (firefly luciferase) (P08659 2-550 L550V, form open): as above

SMILES	Efficacy (%) NLuc (- ATP) (NLuc) [%]	pIC50 or pSDR50 FLuc E (P. pyralis FLuc)	Efficacy (%) FLuc E (P. pyralis FLuc; Clade S follow-up) [%]	IC50 (P. pyralis FLuc) [mM]	Efficacy (%) FLuc-C-NLuc SDR (-ATP) [1] [%]	% Activity (max response, + ATP) [2] [%]	% Activity (max response, - ATP) [2] [%]	pIC50 or pSDR50 FLuc E (P. pyralis FLuc; Clade S follow-up)	IC50 (P. pyralis FLuc; Clade S follow-up) [mM]
O=C(NCCCc1ccccc1)C1CCN(C(=O)c2ncn3c2COC(c2ccc(F)cc2)C3)CC1 (stereo not drawn) [NCGC00449829-01]	-7.00	4.96	-36.00	0.0111	0.00	29.00	0.00		
O=C(NCC1CCCCC1)C1CCN(C(=O)c2ncn3c2COC(c2ccc(F)cc2)C3)CC1 (stereo not drawn) [NCGC00449830-01]	0.00		0.00		0.00	0.00	0.00		
COCCNC(=O)C1CCN(C(=O)c2ncn3c2COC(c2ccc(F)cc2)C3)CC1 (stereo not drawn) [NCGC00449834-01]	0.00		-35.83		0.00	67.53	0.00	4.91	0.0124
O=C(NCC1CCCO1)C1CCN(C(=O)c2ncn3c2COC(c2ccc(F)cc2)C3)CC1 (stereo not drawn) [NCGC00449835-01]	0.00		-45.21		0.00	54.34	0.00	5.01	0.00988
Cc1cccc(CNC(=O)C2CCN(C(=O)c3ncn4c3COC(c3ccc(F)cc3)C4)CC2)c1 (stereo not drawn) [NCGC00449836-01]	-9.94		-28.36		0.00	48.27	0.00	4.91	0.0124
O=C(NCc1cccc(F)c1)C1CCN(C(=O)c2ncn3c2COC(c2ccc(F)cc2)C3)CC1 (stereo not drawn) [NCGC00449837-01]	0.00		-43.87		0.00	75.17	0.00	5.01	0.00988
O=C(NC1CC1)C1CCN(C(=O)c2ncn3c2COC(c2ccc(Cl)cc2)C3)CC1 (stereo not drawn) [NCGC00449842-01]	0.00		-28.68		0.00	18.50	0.00		
O=C(NC1CCCC1)C1CCN(C(=O)c2ncn3c2COC(c2ccc(Cl)cc2)C3)CC1 (stereo not drawn) [NCGC00449843-01]	0.00		-13.86		0.00	0.00	0.00		
O=C(NC1CCCCC1)C1CCN(C(=O)c2ncn3c2COC(c2ccc(Cl)cc2)C3)CC1 (stereo not drawn) [NCGC00449844-01]	0.00		-39.79		0.00	33.25	0.00	4.96	0.0111
